The values below come from ChEMBL document CHEMBL5375992, “Design and Development of IKZF2 and CK1α Dual Degraders” (J Med Chem, 2023).

The structures appear in SMILES notation. Calls of active or inactive are those of the source. No cut-off for these calls is given here.

Holding throughout (assay type): cell-based
The target of test [1] is T1, Protein cereblon/Zinc finger protein Helios (Homo sapiens) (UniProt Q96SW2+Q9UKS7). As to the kind of experiment: Protac activity at CRBN/IKZF2 in human MOLM-13 cells assessed as relative ratio at 25 uM incubated for 24 hrs by Western blotting analysis relative to DMSO.
T1 sequence (Q96SW2 whole entry, looked up): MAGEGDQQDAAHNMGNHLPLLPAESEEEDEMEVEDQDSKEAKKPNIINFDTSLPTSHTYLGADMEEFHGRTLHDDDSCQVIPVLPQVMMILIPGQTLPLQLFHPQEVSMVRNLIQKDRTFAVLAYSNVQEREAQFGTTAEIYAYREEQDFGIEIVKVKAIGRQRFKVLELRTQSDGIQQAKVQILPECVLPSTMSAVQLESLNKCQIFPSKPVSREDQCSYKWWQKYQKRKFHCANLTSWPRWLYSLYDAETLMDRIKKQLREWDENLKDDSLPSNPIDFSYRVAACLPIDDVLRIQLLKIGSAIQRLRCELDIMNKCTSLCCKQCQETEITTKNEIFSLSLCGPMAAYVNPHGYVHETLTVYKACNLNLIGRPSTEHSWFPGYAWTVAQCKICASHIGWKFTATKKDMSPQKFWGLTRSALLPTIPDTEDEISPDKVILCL
T1 sequence (Q9UKS7 whole entry, looked up): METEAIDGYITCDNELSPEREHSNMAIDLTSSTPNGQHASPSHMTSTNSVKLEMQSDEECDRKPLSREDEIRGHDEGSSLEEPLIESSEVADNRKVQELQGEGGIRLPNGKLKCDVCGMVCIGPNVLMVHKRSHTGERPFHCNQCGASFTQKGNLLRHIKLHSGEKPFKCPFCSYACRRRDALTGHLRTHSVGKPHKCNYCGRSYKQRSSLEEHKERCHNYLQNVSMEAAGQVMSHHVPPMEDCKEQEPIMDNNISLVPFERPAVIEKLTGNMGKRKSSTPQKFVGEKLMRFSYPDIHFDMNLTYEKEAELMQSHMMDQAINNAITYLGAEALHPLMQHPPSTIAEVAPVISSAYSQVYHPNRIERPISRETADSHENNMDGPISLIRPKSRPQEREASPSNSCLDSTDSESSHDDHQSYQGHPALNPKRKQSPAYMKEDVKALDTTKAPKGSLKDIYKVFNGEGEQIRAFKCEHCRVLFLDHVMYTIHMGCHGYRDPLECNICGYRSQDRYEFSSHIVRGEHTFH
The target in test [2] is T2, Cereblon/Ikaros (Homo sapiens) (UniProt Q96SW2+Q13422). Kind of test: Protac activity at CRBN/IKZF1 in human MOLM-13 cells assessed as relative ratio at 25 uM incubated for 24 hrs by Western blotting analysis relative to DMSO.
Test [3] deals with T2, Cereblon/Ikaros (Homo sapiens). As to the kind of experiment: Protac activity at CRBN/IKZF1 in human MOLM-13 cells at 25 uM incubated for 24 hrs by Western blotting analysis relative to control. A general note: Immunoblotting shows a protein as a band on a membrane.
Test [4] deals with T1, Protein cereblon/Zinc finger protein Helios (Homo sapiens). Kind of test: Protac activity at CRBN/IKZF2 (unknown origin) transfected in HEK293T cells at 100 nM incubated for 24 hrs by flow cytometry analysis relative to control.
In test [5] the target is Cereblon/Casein kinase I alpha (Homo sapiens) (UniProt P48729+Q96SW2). As to the kind of experiment: Protac activity at CRBN/CK1alpha (unknown origin) transfected in HEK293T cells at 100 nM incubated for 24 hrs by flow cytometry analysis relative to control. (In flow cytometry, cells or beads pass a laser one at a time.)
Sequence of Cereblon/Casein kinase I alpha (Homo sapiens) (P48729 2-337 limits assumed): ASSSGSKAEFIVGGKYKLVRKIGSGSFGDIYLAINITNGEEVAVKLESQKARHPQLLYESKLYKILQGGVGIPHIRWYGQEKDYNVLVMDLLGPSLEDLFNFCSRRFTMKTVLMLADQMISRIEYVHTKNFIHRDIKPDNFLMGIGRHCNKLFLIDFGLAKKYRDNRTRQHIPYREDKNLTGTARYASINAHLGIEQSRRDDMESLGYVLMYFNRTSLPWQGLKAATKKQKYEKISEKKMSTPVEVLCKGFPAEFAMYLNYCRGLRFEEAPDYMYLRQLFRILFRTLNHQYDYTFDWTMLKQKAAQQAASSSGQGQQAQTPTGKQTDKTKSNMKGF
Sequence of Cereblon/Casein kinase I alpha (Homo sapiens) (Q96SW2 whole entry partner): as the sequence (Q96SW2 whole entry, looked up) above
Test [6] deals with T1, Protein cereblon/Zinc finger protein Helios (Homo sapiens). As to the kind of experiment: Protac activity at CRBN/IKZF2 in human MOLM-13 cells at 25 uM incubated for 24 hrs by Western blotting analysis relative to control.
Test [7] concerns the target Protein cereblon/Eukaryotic peptide chain release factor GTP-binding subunit ERF3A (Homo sapiens) (UniProt Q96SW2+P15170). Kind of test: Protac activity at CRBN/GSPT1 (unknown origin) transfected in HEK293T cells at 100 nM incubated for 24 hrs by flow cytometry analysis relative to control.
The target of test [8] is T2, Cereblon/Ikaros (Homo sapiens). Kind of test: Protac activity at CRBN/IKZF1 (unknown origin) transfected in HEK293T cells at 100 nM incubated for 24 hrs by flow cytometry analysis relative to control.

Sequence of Protein cereblon/Eukaryotic peptide chain release factor GTP-binding subunit ERF3A (Homo sapiens) (P15170 whole entry, looked up): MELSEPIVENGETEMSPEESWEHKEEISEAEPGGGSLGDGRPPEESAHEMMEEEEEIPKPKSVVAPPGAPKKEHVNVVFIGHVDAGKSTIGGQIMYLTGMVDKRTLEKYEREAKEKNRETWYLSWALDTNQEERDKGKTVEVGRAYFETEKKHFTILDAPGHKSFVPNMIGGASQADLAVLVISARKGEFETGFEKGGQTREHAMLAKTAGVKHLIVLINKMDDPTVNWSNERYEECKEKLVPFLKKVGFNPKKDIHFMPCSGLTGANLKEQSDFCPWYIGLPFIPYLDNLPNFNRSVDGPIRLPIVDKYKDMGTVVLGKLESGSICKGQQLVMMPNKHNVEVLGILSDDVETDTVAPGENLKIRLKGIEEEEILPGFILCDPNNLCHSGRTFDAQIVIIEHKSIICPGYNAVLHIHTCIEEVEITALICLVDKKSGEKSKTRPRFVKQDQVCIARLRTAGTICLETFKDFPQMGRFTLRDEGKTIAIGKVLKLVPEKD
Sequence of Protein cereblon/Eukaryotic peptide chain release factor GTP-binding subunit ERF3A (Homo sapiens) (Q96SW2 whole entry, looked up): as the sequence (Q96SW2 whole entry, looked up) above

Turning to `O=C1CCC(N2Cc3cc(NCc4cccc(Oc5ccccc5)c4)ccc3C2=O)C(=O)N1` (stereo unspecified), the Ratio in test [1] came to 0.79; in test [2], 0.14.

As for `O=C1CCC(N2Cc3cc(NCc4ccc5ccccc5n4)ccc3C2=O)C(=O)N1` (stereo unspecified), the outcome in test [3] was Active.

`O=C1CCC(N2Cc3cc(NC(=O)c4ccc5cc(O)ccc5c4)ccc3C2=O)C(=O)N1` (stereo unspecified): the Activity is 60% in test [4] and 55% in test [5].

Regarding `COc1cc(CNc2ccc3c(c2)CN(C2CCC(=O)NC2=O)C3=O)cc2ccccc12` (stereo unspecified), in test [6], the result was inactive. Moreover, the outcome in test [3] was Active.

Consider `COc1ccc(CNc2ccc3c(c2)CN(C2CCC(=O)NC2=O)C3=O)cc1` (stereo unspecified), for which the figures for the Ratio in test [1] and in test [2] were 0.65 and 0.48, respectively.

Take `COc1cc2ccc(C(=O)Nc3ccc4c(c3)CN(C3CCC(=O)NC3=O)C4=O)cc2cn1` (stereo unspecified): the figures for the Activity in test [4] and in test [5] were 88% and 72%, respectively.

Regarding `O=C1CCC(N2Cc3cc(NCc4ccccc4)ccc3C2=O)C(=O)N1` (stereo unspecified), the Ratio was 1.04 in test [1] and 0.59 in test [2].

For `O=C1CCC(N2Cc3cc(NC(=O)c4cccc(C(=O)c5ccccc5)c4)ccc3C2=O)C(=O)N1` (stereo unspecified), the Activity in test [4] came to 83%; in test [7], 9%; in test [5] it was 64%; in test [8] it was 60%.

With `CC(=O)Nc1ccc2c(c1)CN(C1CCC(=O)NC1=O)C2=O` (stereo unspecified), the Activity in test [4] stood at 17%; in test [7] it was 10%; in test [5] it was 12%; in test [8] it was 4%.

As for `O=C(/C=C/c1ccccc1)Nc1ccc2c(c1)CN(C1CCC(=O)NC1=O)C2=O` (stereo unspecified), the Activity was determined as 71% in test [4], 8% in test [7], 60% in test [5] and 13% in test [8].

As for `O=C1CCC(N2Cc3cc(NC(=O)C4=COc5ccccc5O4)ccc3C2=O)C(=O)N1` (stereo unspecified), the Activity in test [4] is 81%; in test [7], 0%; in test [5], 46%; in test [8], 13%.

As for `O=C1CCC(N2Cc3cc(NCCc4ccc5ccccc5c4)ccc3C2=O)C(=O)N1` (stereo unspecified), the Ratio in test [1] turned out to be 1.51; in test [2], 0.26. The result in test [6] was inactive. In test [3], the result was Active.

For `O=C1CCC(N2Cc3cc(NCc4ccc5ccncc5c4)ccc3C2=O)C(=O)N1` (stereo unspecified), the outcome in test [3] was Active.

As to `O=C1CCC(N2Cc3cc(NCc4cc5ccccc5cn4)ccc3C2=O)C(=O)N1` (stereo unspecified), in test [3], the outcome was Active.

For the compound `O=C1CCC(N2Cc3cc(NCc4ccc5cc(O)ccc5c4)ccc3C2=O)C(=O)N1` (stereo unspecified), the Ratio in test [1] amounted to 0.84; in test [2], 0.54.

On to `O=C1CCC(N2Cc3cc(NCc4ccc5c(c4)oc4ccccc45)ccc3C2=O)C(=O)N1` (stereo unspecified), for which the Ratio in test [1] amounted to 0.94; in test [2] it was 0.24. In addition, the outcome in test [6] and in test [3] was Active.

As to `COc1cc2c(OC)cccc2cc1CNc1ccc2c(c1)CN(C1CCC(=O)NC1=O)C2=O` (stereo unspecified), in test [6], the result was Active.

For the compound `CN(C)c1ccc2cc(CNc3ccc4c(c3)CN(C3CCC(=O)NC3=O)C4=O)ccc2c1` (stereo unspecified), the Ratio in test [1] was 0.74; in test [2], 0.65. The outcome in test [6] and in test [3] was Active.

Regarding `COc1ccc2ccc(CNc3ccc4c(c3)CN(C3CCC(=O)NC3=O)C4=O)cc2c1` (stereo unspecified), the outcome in test [6] was inactive. Further, in test [3], the outcome was Active.

Regarding `O=C1CCC(N2Cc3cc(NCc4ccc5ccccc5c4)ccc3C2=O)C(=O)N1` (stereo unspecified), the values for the Ratio in test [1] and in test [2] were 0.36 and 0.15, respectively. Also, the outcome in test [6] was Active.

As for `O=C1CCC(N2Cc3cc(NCc4ccc5ncccc5c4)ccc3C2=O)C(=O)N1` (stereo unspecified), the result in test [3] was Active.

As for `O=C1CCC(N2Cc3cc(NC(=O)Cc4cccc5ccccc45)ccc3C2=O)C(=O)N1` (stereo unspecified), the Activity in test [4] was found to be 93%; in test [7] it was 25%; in test [5], 64%; in test [8] it was 97%.

For the compound `O=C1CCC(N2Cc3cc(NC(=O)c4ccc5c(c4)OCCO5)ccc3C2=O)C(=O)N1` (stereo unspecified), the Activity in test [4] came out at 38%; in test [7], 5%; in test [5] it was 36%; in test [8], 9%.

For `O=C1CCC(N2Cc3cc(NCc4ccc5cc(Br)ccc5c4)ccc3C2=O)C(=O)N1` (stereo unspecified), the Ratio in test [1] came to 1.41; in test [2], 0.73.

For `O=C1CCC(N2Cc3cc(NC(=O)c4ccc5c(c4)OCO5)ccc3C2=O)C(=O)N1` (stereo unspecified), the Activity is 49% in test [4], 5% in test [7], 36% in test [5] and 7% in test [8].

For the compound `O=C1CCC(N2Cc3cc(NC(=O)c4ccc5c(c4)CCCC5)ccc3C2=O)C(=O)N1` (stereo unspecified), the Activity is 74% in test [4], 1% in test [7], 51% in test [5] and 16% in test [8].

With `O=C1CCC(N2Cc3cc(NCc4cc5ccccc5o4)ccc3C2=O)C(=O)N1` (stereo unspecified), the figures for the Ratio in test [1] and in test [2] were 0.76 and 0.13, respectively.

With `O=C1CCC(N2Cc3cc(NCc4cccc(OCc5ccccc5)c4)ccc3C2=O)C(=O)N1` (stereo unspecified), the figures for the Ratio in test [1] and in test [2] were 0.66 and 0.04, respectively.

On to `O=C1CCC(N2Cc3cc(NCc4cccc5ccccc45)ccc3C2=O)C(=O)N1` (stereo unspecified), for which the results for the Ratio in test [1] and in test [2] were 0.83 and 0.66, respectively.

As to `O=C1CCC(N2Cc3cc(NCc4ccc5cc(F)ccc5c4)ccc3C2=O)C(=O)N1` (stereo unspecified), the result in test [6] and in test [3] was Active.

For `O=C1CCC(N2Cc3cc(NCc4cccc5cnccc45)ccc3C2=O)C(=O)N1` (stereo unspecified), in test [3], the outcome was Active.

Regarding `O=C1CCC(N2Cc3cc(NC(=O)c4ccc5occc5c4)ccc3C2=O)C(=O)N1` (stereo unspecified), the Activity was 81% in test [4], 2% in test [7], 50% in test [5] and 6% in test [8].

For the compound `O=C1CCC(N2Cc3cc(NCc4ccc5c6c4CC=C4C=CC=C(C=C5)C46)ccc3C2=O)C(=O)N1` (stereo unspecified), the values for the Ratio in test [1] and in test [2] were 0.95 and 0.39, respectively.

As to `O=C1CCC(N2Cc3cc(NC(=O)c4ccc(Oc5ccccc5)cc4)ccc3C2=O)C(=O)N1` (stereo unspecified), the Activity in test [4] was 78%; in test [7] it was 10%; in test [5] it was 61%; in test [8], 5%.

In the case of `O=C1CCC(N2Cc3cc(NC(=O)C4=Cc5ccccc5OC4)ccc3C2=O)C(=O)N1` (stereo unspecified), the Activity in test [4] worked out at 84%; in test [7], 11%; in test [5], 66%; in test [8] it was 15%.

For `O=C1CCC(N2Cc3cc(NC(=O)c4ccc5ncsc5c4)ccc3C2=O)C(=O)N1` (stereo unspecified), the Activity turned out to be 42% in test [4], 0% in test [7], 33% in test [5] and 3% in test [8].

`O=C1CCC(N2Cc3cc(NC(=O)c4cccc(Oc5ccccc5)c4)ccc3C2=O)C(=O)N1` (stereo unspecified): the Activity in test [4] stood at 74%; in test [7] it was 9%; in test [5] it was 58%; in test [8], 62%.

With `COc1cccc2ccc(CNc3ccc4c(c3)CN(C3CCC(=O)NC3=O)C4=O)cc12` (stereo unspecified), the result in test [6] was inactive. Also, the result in test [3] was Active.

On to `O=C1CCC(N2Cc3cc(NCc4ccc5oc6ccccc6c5c4)ccc3C2=O)C(=O)N1` (stereo unspecified), for which the Ratio in test [1] stood at 0.19; in test [2], 0.08. For the same compound, the result in test [6] was Active.
